Results taken from US20250312417A1, “Methods for Mitigating Lung Injury in Conjunction with Exposure to Radiation and/or Radiation or Radiomimetic Treatments” (Janssen Pharmaceutica NV, priority 2022, published 2025).

Legend:
[1] = tested on: lungs of mice after whole thoracic radiation (WTI); test: Proinflammatory chemokine mRNA expression in lungs after whole thoracic radiation (WTI) 16 Gy; assay type: in vivo, C57BL/6 male mice; conditions: 2 weeks post-WTI 16 Gy; 0.3 mg/kg subcutaneously 1 day prior to WTI; p<0.05
Procedure: Lung data is presented as fold change of chemokine expression normalized to Hprt1 expression (n=5 for Naïve, n=5 for Vehicle (phosphate buffered saline) and TPOm pretreatment). Expression in the naive group is designated as 1 for comparison. Data are shown as means±SE. *P<0.05 vs. vehicle treated mice.
(§1) Methods: C57BL/6 male mice (9-12 weeks old) were administered with the TPOm RWJ-800088 (0.3 mg/kg) or PBS (vehicle) subcutaneously 1 day prior to whole thoracic radiation (WTI) at 16 Gy delivered by x-ray. Mice were sacrificed at 2 weeks and 7 months (n=5/time point/group) post-WTI to collect the lung tissues for various analysis. Groups of mice (n=10/group) exposed to 18 Gy WTI were also subjected to an 8-month survival study.

[2] = tested on: lungs of mice after whole thoracic radiation (WTI); test: H&E staining of lung sections for cellularity and immune infiltration post-WTI; assay type: in vivo, C57BL/6 male mice; conditions: 2 weeks post-WTI 16 Gy; 0.3 mg/kg subcutaneously 1 day prior to WTI
Procedure: (§2) FIGS. 2A-2B show the effect of TPOm-pretreatment (1 day before irradiation at 0.3 mg/kg body weight by subcutaneous injection) on immune cell infiltration and permeability in the lungs of mice at 14 days post-WTI. […] 200× total magnification.
as §1

[3] = tested on: lungs of mice after whole thoracic radiation (WTI); test: Protein in bronchoalveolar lavage by bicinchoninic acid assay (BCA) post-WTI; assay type: in vivo, C57BL/6 male mice; conditions: 2 weeks post-WTI 16 Gy; 0.3 mg/kg subcutaneously 1 day prior to WTI; p<0.05
Procedure: as §2, §1

[4] = tested on: lungs of mice after whole thoracic radiation (WTI); test: Collagen deposition in lungs by Trichrome Blue staining post-WTI; assay type: in vivo, C57BL/6 male mice; conditions: 7 months post-WTI 16 Gy; 0.3 mg/kg subcutaneously 1 day prior to WTI; p<0.05
Procedure: FIGS. 3A-3B show the effect of TPOm-pretreatment (1 day before irradiation at 0.3 mg/kg body weight by subcutaneous injection) on collagen deposition in lungs of mice at 7 months post-WTI. […] 200× total magnification.
as §1

[5] = tested on: lungs of mice after whole thoracic radiation (WTI); test: Pulmonary density by microCT post-WTI; assay type: in vivo, C57BL/6 male mice; conditions: 7 months post-WTI 16 Gy; 0.3 mg/kg subcutaneously 1 day prior to WTI; p<0.05
Procedure: FIGS. 5A-5C show the effect of TPOm-pretreatment (1 day before irradiation at 0.3 mg/kg body weight by subcutaneous injection) on pulmonary density of mice at 7 months post-WTI. Pulmonary density imaged by microCT and measured by microCT analysis software. […] (n=3 for Naïve, n=5 for vehicle and n=4 for TPOm pretreatment). *P <0.05 vs. vehicle treated mice.
as §1

[6] = tested on: lungs of mice after whole thoracic radiation (WTI); test: Senescence marker mRNA expression in lungs (qPCR) post-WTI; assay type: in vivo, C57BL/6 male mice; conditions: 7 months post-WTI 16 Gy; 0.3 mg/kg subcutaneously 1 day prior to WTI; p<0.05
Procedure: FIGS. 4A-4C show the effect of TPOm-pretreatment (1 day before irradiation at 0.3 mg/kg body weight by subcutaneous injection) on senescence gene mRNA and protein expression in lungs of mice at 7 months post-WTI. mRNA and protein levels assessed by qPCR and western blot, respectively. […] Data are shown as means±SE. *P <0.05 vs. vehicle treated mice. […] Expression in the naive group is designated as 1 for comparison.
as §1

[7] = tested on: mice exposed to 18 Gy WTI; test: 8-month survival study after 18 Gy WTI; assay type: in vivo, C57BL/6 male mice
Procedure: Mice were given a vehicle or TPOm injection (1 mg/kg), 1 day before irradiation (1×) or 1 day before irradiation and 7 days after radiation (2×) (n=10 for irradiated groups, n=5 for naïve). *P<0.05 vs. vehicle treated mice.
as §1

[8] = tested on: lungs of mice after whole thoracic radiation (WTI); test: KC protein in whole lung lysate by ELISA post-WTI; assay type: in vivo; conditions: post-WTI 16 Gy; 0.3 mg/kg subcutaneously 1 day before irradiation; FIG. 7A
Procedure: (§3) FIGS. 7A-C show TPOm-pretreatment (1 day before irradiation at 0.3 mg/kg body weight by subcutaneous injection) on neutrophil infiltration of mice measured at 7 months post-WTI. […] 400× total magnification. […] Data are shown as means±SE. *P<0.05, ***P<0.0001.
as §1
Methods: Mice were treated as described in Example 1. Whole lung lysate was prepared from left lung tissue at the time of harvest. KC ELISA kit (R&D Systems, #DY453) was used according to manufacturer's instructions. For each sample, 2 replicates were measured for KC protein.

[9] = tested on: lungs of mice after whole thoracic radiation (WTI); test: Myeloperoxidase (MPO) staining of lung sections for neutrophil infiltration post-WTI; assay type: in vivo; conditions: post-WTI 16 Gy; 0.3 mg/kg subcutaneously 1 day before irradiation; FIG. 7C
Procedure: as §3, §1
At the time of harvest, the right lung was fixed with 10% formalin, then embedded and sectioned at […]. Anti-myeloperoxidase (MPO) antibody was obtained from Abcam (Cambridge, MA, USA). Immunoreactivity was visualized by ImmPACT histochemistry (Vector Labs, Burlingame, CA, USA) with hematoxylin counter staining. For quantitation of MPO+ cells in lung tissue, images were analyzed with ImageJ software (National Institutes of Health); stained cells were counted using the “analyze particles” module to assess positive staining. Data were quantified from 3 fields of 1 section per animal, and 5 animals per group.

“methoxypolyethyleneglycol20000-propionyl-L-Isoleucyl-L-Glutamyl-Glycyl-L-Prolyl-L-Threonyl-L-Leucyl-L-Arginyl-L-Glutaminyl-L-2-Naphthylalanyl-L-Leucyl-L-Alanyl-L-Alanyl-L-Arginyl-Sarcosyl-Ne-(methoxypolyethyleneglycol20000-propionyl-L-Isoleucyl-L-Glutamyl-Glycyl-L-Prolyl-L-Threonyl-L-Leucyl-L-Arginyl-L-Glutaminyl-L-2-Naphthylalanyl-L-Leucyl-L-Alanyl-L-Alanyl-L-Arginyl-Sarcosyl-)-Lysinamide [TPOm]” was tested, and the “mRNA expression of proinflammatory chemokine KC in lungs, lower than vehicle” value [1] was 37%, the “mRNA expression of proinflammatory chemokine MCP1 in lungs, lower than vehicle” value [1] was 39% and the “cellularity by H&E staining” value [2] was “higher cellularity in vehicle compared to TPOm treated mice”. The “protein leaked to bronchoalveolar lavage fluid, less than vehicle” value [3] was 28%, the “collagen deposition, lower than vehicle (Trichrome Blue staining)” value [4] was 31% and the “density in lungs by microCT, less than vehicle” value [5] was 21%. The “mRNA levels of senescence marker p21, lower than vehicle” value [6] was 52%, the survival ([7]; vehicle 0%, p<0.01) was 40% and the mortality ([7]; vs vehicle) was “significantly delayed in mortality”. For the same substance, the “protein expression of KC in the lung (ELISA)” value [8] was “significantly reduced in the TPOm (RWJ-800088) group to a level similar to naïve” and the “alveolar neutrophil accumulation (MPO staining)” value [9] was “alveolar neutrophil accumulation in significantly greater numbers than mice treated with TPOm”.
